Patent publication US12104168B2, “Cell culture medium” (Agency For Science, Technology And Research, priority 2018, dated 2024)

System: hepSC
Experiment: Dasatinib withdrawal or replacement in hSC media, maintenance of hepSC stem cell state
Details: for survival of hepatic stem cells: ABL kinase inhibitor together with SRC inhibition, replacing Dasatinib; for rescue of phenotype after subculturing / rescue of cell phenotype: added instead of Dasatinib; for rescue of phenotype after subculturing: 48 hr after subculturing; for rescue of cell phenotype: 6 days after withdrawal; for rescue of cell morphology changes: replacement of Dasatinib with the inhibitor, 48 hrs

Row | SMILES | survival of hepatic stem cells | rescue of phenotype after subculturing | rescue of cell phenotype | rescue of cell morphology changes
1 | Cc1ccc(NC(=O)c2ccc(CN3CCN(C)CC3)cc2)cc1Nc1nccc(-c2cccnc2)n1 [Imatinib] | seems to improved survival of hepatic stem cells | did not rescue the phenotype | did not rescue the cell phenotype | did not rescue cell morphology changes
2 | Cc1cn(-c2cc(NC(=O)c3ccc(C)c(Nc4nccc(-c5cccnc5)n4)c3)cc(C(F)(F)F)c2)cn1 [Nilotinib] | seems to improved survival of hepatic stem cells | did not rescue the phenotype | did not rescue the cell phenotype | did not rescue cell morphology changes
